Laboratory results from patent publication US7276576B1, “Mammalian ICYP (iodocyanopindolol) receptor and its applications” (Dainippon Sumitomo Pharma Co., Ltd., priority 1996, dated 2007).
Values joined by “and” are separate entries in the source; they are usually repeats but may differ in a detail not shown here. Identical values can stand only once. Counter-ions that a name gives are not always drawn. Like-named read-outs stand apart in the source and are kept apart here.

Tests used:
rat white adipocytes = test: Lipolysis in rat white adipocytes; format: cell-based; conditions: for Slope of Schild plot for cyanopindolol, rat white adipocytes / pA2 for cyanopindolol, rat white adipocytes / IA, rat white adipocyte lipolysis / EC50: 10 μM phentolamine and 1 μM propranolol; for IA, rat white adipocyte lipolysis: relative to isoproterenol; for IA, rat white adipocyte lipolysis / EC50: mean ± SEM; for EC50: Rattus norvegicus, Adipocyte, read-out: pD2, rat white adipocyte lipolysis (converted)
Description: White adipocytes were isolated from epididymal fat pads of male Wistar rats (190-230 g) and lipolysis was determined according to the previous report (Sugasawa T. et al. cited above). The cells were preincubated for 5 min at 37° C. in the presence of 30 μM ascorbic acid, 10 μM phentolamine and 1 μM propranolol.
Agonists were then applied and incubated for 90 min. In the case of testing the effect of cyanopindolol, it was added 5 min before the addition of agonist.
(§1) Agonist concentration-ratios (CR) were determined from the EC50 values of the concentration-response curves of agonists with or without cyanopindolol, according to the method of Arunlakshana et al., 1959.
(§2) The EC50 values were calculated using the computer program, InPlot™.

[1] = target: T1, [125I]-ICYP specific binding site (SMBP, SM-11044 binding protein) in rat colon smooth muscle membranes (Rattus norvegicus, UniProt A0A8I6A822); test: [125I]-ICYP saturation and competition binding to rat colon membranes (Example 2)
T1 construct: Membranes from colon smooth muscles were prepared as essentially described by Ek et al., 1986; from tissue
T1 sequence (A0A8I6A822 27-587): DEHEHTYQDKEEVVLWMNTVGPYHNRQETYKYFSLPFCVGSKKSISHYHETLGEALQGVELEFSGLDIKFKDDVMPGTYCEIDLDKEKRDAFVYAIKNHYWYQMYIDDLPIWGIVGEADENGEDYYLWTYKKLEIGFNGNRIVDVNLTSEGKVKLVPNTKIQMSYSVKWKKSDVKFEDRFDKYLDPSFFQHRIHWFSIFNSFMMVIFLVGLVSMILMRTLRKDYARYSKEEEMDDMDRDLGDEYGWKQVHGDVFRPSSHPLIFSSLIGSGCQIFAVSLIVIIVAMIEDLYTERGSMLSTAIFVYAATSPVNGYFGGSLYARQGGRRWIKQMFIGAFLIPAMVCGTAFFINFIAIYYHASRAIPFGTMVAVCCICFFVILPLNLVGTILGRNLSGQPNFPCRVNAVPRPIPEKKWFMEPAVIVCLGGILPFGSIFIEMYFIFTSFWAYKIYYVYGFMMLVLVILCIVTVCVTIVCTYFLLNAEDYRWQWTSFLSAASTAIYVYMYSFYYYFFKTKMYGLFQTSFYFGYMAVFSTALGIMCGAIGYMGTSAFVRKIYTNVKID
Description: Incubations were carried out at 37° C. for 30 min in a shaking water-bath incubator and terminated by addition of 4 ml of ice-cold Tris-saline followed by rapid filtration under vacuum on Whatman GF/B filter presoaked in Tris-saline containing 0.1% polyethyleneimine (pH 7.4). The filters were washed three times with 4 ml of ice-cold Tris-saline, transferred to plastic tubes and counted in a γ-counter.
Hill coefficient was calculated by linear regression using saturation experiment data. Pseudo-Hill coefficient and IC50 were determined by the computer program, InPlot™ (GraphPad Software, CA, USA).

[2] = test system: rat colon smooth muscle segment; test: Relaxation of KCl-induced tonus in rat colon segment (organ bath); conditions: for Slope of Schild plot for cyanopindolol, rat colon / pA2 for cyanopindolol, rat colon / IA, rat colon relaxation / EC50: 10 μM phentolamine and 1 μM propranolol; for IA, rat colon relaxation: relative to isoproterenol; for IA, rat colon relaxation / EC50: mean ± SEM; for EC50: Rattus norvegicus, relaxation of KCl (100 mM)-induced tonus, read-out: pD2, rat colon relaxation (converted)
Description: Rat colon segment (2 cm) was suspended in organ bath containing 10 ml modified-Tyrode solution (Sugasawa T. et al. Eur. J. Pharmacol., 1992, 216, 207-215). The Tyrode solution contained 0.5 μM atropine, 0.5 μM desmethylimipramine, 30 μM hydrocortisone, 30 μM ascorbic acid, 10 μM phentolamine and 1 μM propranolol throughout study, in order to inhibit spontaneous contraction, neuronal and extra-neuronal uptake of norepinephrine, oxidation of catecholamines, possible α, β1- and β2-AR effects, respectively.
The relaxant action of agonists was determined by measuring relaxation of KCl (100 mM)-induced tonus evoked by cumulative addition of the agonists as described previously (Sugasawa T. et al. cited above). In the case of testing the effect of cyanopindolol, it was added 5-10 min before the addition of agonist.
as §1, §2

[3] = test system: atypical β-AR in rat colon; conditions: under blockade of β1- and β2-AR effects; McLaughlin, MacDonald et al.; cited from earlier work
guinea pig eosinophil = test: Leukotriene B4 induced guinea pig eosinophil chemotaxis; format: cell-based
[4] = test system: [125I]-ICYP specific binding site in rat skeletal muscle membranes; test: [125I]-ICYP binding to rat skeletal muscle membranes; conditions: 1 nM [125I]-ICYP; 10 μM 5-HT, 10 μM phentolamine and 20 μM propranolol
Description: Membranes from the colon smooth muscle and from skeletal muscle were prepared from male Wistar rats (300-360 g) as essentially mentioned in example 1.
Saturation binding studies were performed in a final volume of 200 μl of Tris-saline containing 50 μg membrane proteins and different concentrations ([…]) of [^125I]-ICYP, supplemented with 10 μM serotonine (5-HT), 10 μM phentolamine, 20 μM propranolol and 1.1 mM ascorbic acid (pH 7.4), to block possible 5-HT receptors, ARs and oxidation of catecholamines, respectively. The [^125I]-ICYP was used after removing methyl alcohol by compressed air to avoid the influence of the solvent. […] The filters were washed three times with 4 ml of ice-cold Tris-saline, transferred to plastic tubes and counted in a γ-counter.
Competition assays were performed against 1 nM [^125I]-ICYP. Non-specific binding was determined in the presence of 100 μM SM-11044. The inhibition constant, Ki, of a ligand was calculated using the equation described by Cheng and Prusoff (Biochem. Pharmacol., 1973, 22, 3099-3108). Hill coefficient was calculated by linear regression using saturation experiment data. Pseudo-Hill coefficient and IC50 were determined by the computer program, InPlot™ (GraphPad Software, CA, USA).

guinea pig ileum = test: Guinea pig ileum relaxation of KCl-induced tonus; conditions: compared with rat white adipocyte lipolysis
[5] = target: rat SM-11044 binding protein (Ro-SMBP) of rat colon smooth muscle membranes (rat) (UniProt D3ZUD8); test: WGA-sepharose chromatography, elution with N-acetyl-D-glucosamine
[6] = agonist (−)-isoproterenol, listed as Cyanopindolol
[7] = agonist (−)-isoproterenol, listed as cyanopindolol
[8] = agonist SM-11044, listed as Cyanopindolol
[9] = agonist SM-11044, listed as cyanopindolol
[10] = up to the concentration of 10 μM
[11] = 1 nM [125I]-ICYP, 10 μM 5-HT, 10 μM phentolamine and 20 μM propranolol, read-out: Ki on [125I]-ICYP specific binding to rat colon membranes

Molecule: CC(C)(C)NCC(O)COc1cccc2[nH]c(C#N)cc12 (racemic) [(±)-cyanopindolol, cyanopindolol]
- Slope of Schild plot for cyanopindolol, rat white adipocytes (rat white adipocytes; [6]): 1.08
- pA2 for cyanopindolol, rat white adipocytes (rat white adipocytes; [6]): 7.44
- Slope of Schild plot for cyanopindolol, rat white adipocytes (rat white adipocytes; [7]): 1.08 ± 0.10
- pA2 for cyanopindolol, rat white adipocytes (rat white adipocytes; [7]): 7.44 ± 0.61
- Slope of Schild plot for cyanopindolol, rat white adipocytes (rat white adipocytes; [8]): 0.96
- pA2 for cyanopindolol, rat white adipocytes (rat white adipocytes; [8]): 7.32
- Slope of Schild plot for cyanopindolol, rat white adipocytes (rat white adipocytes; [9]): 0.96 ± 0.21
- pA2 for cyanopindolol, rat white adipocytes (rat white adipocytes; [9]): 7.32 ± 1.51
- Stimulation of lipolysis by the compound itself (rat white adipocytes; [10]): did not stimulate lipolysis
- Ki [1]: 0.11 µM
- Pseudo-Hill coefficient ([1]; 1 nM [125I]-ICYP, 10 μM 5-HT, 10 μM phentolamine and 20 μM propranolol): 1.01 ± 0.14
- Slope of Schild plot for cyanopindolol, rat colon [2, 6]: 1.03
- pA2 for cyanopindolol, rat colon [2, 6]: 7.65
- Slope of Schild plot for cyanopindolol, rat colon [2, 7]: 1.03 ± 0.08
- pA2 for cyanopindolol, rat colon [2, 7]: 7.65 ± 0.48
- Slope of Schild plot for cyanopindolol, rat colon [2, 8]: 0.78
- pA2 for cyanopindolol, rat colon [2, 8]: 8.31
- Slope of Schild plot for cyanopindolol, rat colon [2, 9]: 0.78 and 0.78 ± 0.11
- pA2 for cyanopindolol, rat colon [2, 9]: 8.31 and 8.31 ± 0.88
- Effect of the compound itself on the degree of tonus induced by KCl [2, 10]: had no effect
- pA2 against propranolol-resistant responses of isoproterenol in rat colon [3]: 7.12

Molecule: CC(C)NC[C@H](O)c1ccc(O)c(O)c1 (single isomer, unassigned) [(−)-isoproterenol, isoproterenol]
- IA, rat white adipocyte lipolysis (rat white adipocytes): 1.00 ± 0.037
- EC50 (rat white adipocytes): 1.38 µM
- Ki [1, 11]: > 1000 µM
- Displacement of [125I]-ICYP specific binding ([1]; up to the concentration of 1 mM): not displaced
- IA, rat colon relaxation [2]: 1.00 ± 0.063
- EC50 [2]: 0.229 µM
- Inhibition of leukotriene B4 induced guinea pig eosinophil chemotaxis (guinea pig eosinophil): no such effect
- Displacement of [125I]-ICYP specific binding to skeletal muscle membranes [4]: not displaced by isoproterenol up to concentrations of 10^−4 M

Molecule: O=C([C@@H](NCCCc1ccc(F)cc1)[C@H](O)c1ccc(O)c(O)c1)N1CCCC1 [SM-11044, (L)-threo-3-(3,4-dihydroxyphenyl)-N-[3-(4-fluorophenyl)propyl]serine pyrrolidine amide hydrobromide]
- IA, rat white adipocyte lipolysis (rat white adipocytes): 0.86 ± 0.054
- EC50 (rat white adipocytes): 1.1 µM
- Pseudo-Hill coefficient ([1]; 1 nM [125I]-ICYP, 10 μM 5-HT, 10 μM phentolamine and 20 μM propranolol, hydrobromide): 1.00 ± 0.12
- Ki [1, 11]: 1.8 ± 0.3 µM
- IA, rat colon relaxation [2]: 1.48 ± 0.166
- EC50 [2]: 0.0513 µM
- Relaxation of KCl-induced tonus in guinea pig ileum (in words) (guinea pig ileum): more efficiently than rat white adipocyte lipolysis
- Inhibition of leukotriene B4 induced guinea pig eosinophil chemotaxis (guinea pig eosinophil): inhibiting
- Displacement of [125I]-ICYP specific binding to skeletal muscle membranes [4]: displaced the binding in a concentration-dependent manner

B1: Wheat Germ Agglutinine (WGA)-sepharose 6 MB (protein, UniProt P10968 27-197, looked up)
chain: QRCGEQGSNMECPNNLCCSQYGYCGMGGDYCGKGCQNGACWTSKRCGSQAGGATCTNNQCCSQYGYCGFGAEYCGAGCQGGPCRADIKCGSQAGGKLCPNNLCCSQWGFCGLGSEFCGGGCQSGACSTDKPCGKDAGGRVCTNNYCCSKWGSCGIGPGYCGAGCQSGGCDG
- percent of the radiolabeled material eluted by the specific sugar [5]: 2.3%
